Data set [1] in a line: Laser diffraction of powder emitted from dry powder inhalers: VMGD and container emptying. The data set is classed as physicochemical. The conditions noted are these: 56% trans, SSA 55, pressure drop 4 kPa. The text has this:
Laser diffraction of dry powder formulations emitted from dry powder inhalers is a common methodology employed to characterize the level of de-agglomeration subjected to a powder. The methodology indicates a measure of geometric size rather than aerodynamic size as occurring in industry standard impaction methodologies. Typically, the geometric size of the emitted powder includes a volumetric distribution characterized by the median particle size, VMGD. Importantly, geometric sizes of the emitted particles are discerned with heightened resolution as compared to the aerodynamic sizes provided by impaction methods. Smaller sizes are preferred and result in greater likelihood of individual particles being delivered to the pulmonary tract. Thus, differences in inhaler de-agglomeration and ultimate performance can be easier to resolve with diffraction. In these experiments, inhalers were tested with laser diffraction at pressures analogous to actual patient inspiratory capacities to determine the effectiveness of the inhalation system to de-agglomerate powder formulations. Specifically, the formulations included cohesive diketopiperazine powders with an active insulin loaded ingredient and without. […] Reported in Table 6 are a VMGD and an efficiency of the container emptying during the testing. FDKP powders have an approximate Carr's index of 50 and TI powder has an approximate Carr's index of 40.

Data set [2] in a line: Solubility (stated in words). Type of data set: physicochemical.

Consider `O=C(O)/C=C/C(=O)NCCCCC1NC(=O)C(CCCCNC(=O)/C=C/C(=O)O)NC1=O` (stereo not drawn) [FDKP, 2,5-diketo-3,6-bis(N-fumaryl-4-aminobutyl)piperazine], for which the “% CE” value in data set [1] (DPI 2) amounted to 92.5%; in data set [1] (MedTone) it was 89.5%. In addition, the VMGD is on record as 6.800 micron in data set [1] (DPI 2) and 21.200 micron in data set [1] (MedTone). For the same molecule, the solubility entry in data set [2] (at neutral or basic pH) is on record as “readily soluble”; in data set [2] (in acid), “low solubility”.

The values are drawn from patent US8227409B2, “Diketopiperazine microparticles with defined isomer contents” (MannKind Corporation, priority 2009, dated 2012).
